Data from patent US11851391B2, “Antifungal compounds and methods of forming the same” (University of Kentucky Research Foundation, priority 2018, dated 2023).
In brackets after ≈: the same amount, converted by molar mass. Like-named read-outs stand apart in the source and are kept apart here.

What was measured:
[1] = tested on: Candida glabrata ATCC 2001 (strain H); experiment: MIC determination, in vitro antifungal assay (CLSI M27-A3); type: cell-based; details: MIC-0, 48 h at 35° C.
Protocol: (§1) The activity of N,N′-diaryl-bishydrazones 7-22 was tested against a panel of seven strains of C. albicans: ATCC 10231(R) (A), ATCC 64124(R) (B), ATCC MYA-2876(S) (C), ATCC 90819(R) (D), ATCC MYA-2310(S) (E), ATCC MYA-1237(R) (F), and ATCC MYA-1003(R) (G). The activity of these bishydrazones 7-22 was also explored against a panel of three non-albicans Candida strains: C. glabrata ATCC 2001 (H), C. krusei ATCC 6258 (I), and C. parapsilosis ATCC 22019 (J). Finally, the activity of these bishydrazones 7-22 was explored against three Aspergillus strains: A. flavus ATCC MYA-3631 (K), A. nidulans ATCC 38163 (L), and A. terreus ATCC MYA-3633 (M).
(§2) Candida albicans ATCC 10231 (A), C. albicans ATCC 64124 (B), and C. albicans ATCC MYA-2876 (C) were kindly provided by Dr. Jon Y. Takemoto (Utah State University, Logan, UT, USA). C. albicans ATCC 90819 (D), C. albicans ATCC MYA-2310 (E), C. albicans ATCC MYA-1237 (F), C. albicans ATCC MYA-1003 (G), Candida glabrata ATCC 2001 (H), Candida krusei ATCC 6258 (I), Candida parapsilosis ATCC 22019 (J), Aspergillus flavus ATCC MYA-3631 (K), and Aspergillus terreus ATCC MYA-3633 (M) were obtained from the American Type Culture Collection (ATCC; Manassas, VA, USA). Aspergillus nidulans ATCC 38163 (L) was received from Dr. Jon S. Thorson (University of Kentucky, Lexington, KY, USA). Filamentous fungi and yeasts were cultivated at 35° C. in RPMI 1640 medium (with 1-glutamine, without sodium biocarbonate, Sigma-Aldrich, St. Louis, MO) buffered to a pH of 7.0 with 0.165 M morpholinepropanesulfonic acid (MOPS) buffer (Sigma-Aldrich).
(§3) A single colony of freshly prepared yeast cells was used to inoculate 5 mL of yeast extract peptone dextrose (YPD) broth prior to incubation overnight with shaking at 200 rpm at 35° C. From the actively growing yeast culture, 100 μL were then transferred to 900 μL of sterile ddH2O and re-adjusted to achieve OD600 of 0.12 (˜1×10^6 CFU/mL). The cell suspension was further diluted to achieve 2-4×10^3 CFU/mL in RPMI 1640 medium. […] The final concentration of DMSO was ensured to be <1.25% in all experiments.

[2] = tested on: Candida krusei ATCC 6258 (strain I); experiment: as above; type: cell-based; details: Pichia kudriavzevii, ATCC6258, 48 h, MIC-0, 48 h at 35° C., read-out: MIC
Protocol: as §1, §2, §3

[3] = tested on: C. albicans ATCC 64124(R) (strain B); experiment: as above; type: cell-based, Candida albicans; details: Candida albicans, ATCC64124, 48 h, strain B; MIC-0; 48 h at 35° C.; read-out: MIC
Protocol: as §1, §2
as §3, with “The MIC values of compounds 7a-24c against yeast cells (strains A-J) were determined in 96-well plates as described in the CLSI document M27-A3 with minor modifications. A” for “A”, “experiments. The MIC values for compounds 7a-24c and CAS were defined as the minimum drug concentration that yielded complete inhibition (also known as MIC-0).” for “experiments.”

[4] = tested on: C. albicans ATCC MYA-1237(R) (strain F); experiment: as above; type: cell-based, Candida albicans; details: MIC-0, 48 h at 35° C.
Protocol: as §1, §2
as §3, with “The MIC values of compounds 7a-24c against yeast cells (strains A-J) were determined in 96-well plates as described in the CLSI document M27-A3 with minor modifications. A” for “A”, “experiments. The MIC values for compounds 7a-24c and CAS were defined as the minimum drug concentration that yielded complete inhibition (also known as MIC-0).” for “experiments.”

[5] = tested on: C. albicans ATCC MYA-2310(S) (strain E); experiment: as above; type: cell-based, Candida albicans; details: Candida albicans, 48 h, MIC-0, 48 h at 35° C., read-out: MIC
Protocol: as §1, §2
as §3, with “The MIC values of compounds 7a-24c against yeast cells (strains A-J) were determined in 96-well plates as described in the CLSI document M27-A3 with minor modifications. A” for “A”, “experiments. The MIC values for compounds 7a-24c and CAS were defined as the minimum drug concentration that yielded complete inhibition (also known as MIC-0).” for “experiments.”

[6] = tested on: C. albicans ATCC 90819(R) (strain D); experiment: as above; type: cell-based, Candida albicans; details: Candida albicans, ATCC90819, 48 h, MIC-0, 48 h at 35° C., read-out: MIC
Protocol: as §1, §2
as §3, with “The MIC values of compounds 7a-24c against yeast cells (strains A-J) were determined in 96-well plates as described in the CLSI document M27-A3 with minor modifications. A” for “A”, “experiments. The MIC values for compounds 7a-24c and CAS were defined as the minimum drug concentration that yielded complete inhibition (also known as MIC-0).” for “experiments.”

[7] = tested on: C. albicans ATCC MYA-1003(R) (strain G); experiment: as above; type: cell-based, Candida albicans; details: Candida albicans, 48 h, MIC-0, 48 h at 35° C., read-out: MIC
Protocol: as §1, §2, §3

[8] = tested on: C. albicans ATCC MYA-2876(S) (strain C); experiment: as above; type: cell-based, Candida albicans; details: Candida albicans, 48 h, MIC-0, 48 h at 35° C., read-out: MIC
Protocol: as §1, §2, §3

[9] = tested on: Candida albicans ATCC 10231(R) (strain A); experiment: as above; type: cell-based; details: Candida albicans, ATCC10231, 48 h, MIC-0 (no visible growth), 48 h at 35° C., read-out: MIC
Protocol: as §1, §2
as §3, with “The MIC values of compounds 7a-24c against yeast cells (strains A-J) were determined in 96-well plates as described in the CLSI document M27-A3 with minor modifications. A” for “A”, “experiments. The MIC values for compounds 7a-24c and CAS were defined as the minimum drug concentration that yielded complete inhibition (also known as MIC-0).” for “experiments.”

[10] = tested on: Candida parapsilosis ATCC 22019 (strain J); experiment: as above; type: cell-based; details: Lodderomyces parapsilosis, ATCC22019, 48 h, strain J; MIC-0; 48 h at 35° C.; read-out: MIC
Protocol: as §1, §2
as §3, with “The MIC values of compounds 7a-24c against yeast cells (strains A-J) were determined in 96-well plates as described in the CLSI document M27-A3 with minor modifications. A” for “A”, “experiments. The MIC values for compounds 7a-24c and CAS were defined as the minimum drug concentration that yielded complete inhibition (also known as MIC-0).” for “experiments.”

[11] = tested on: Aspergillus terreus ATCC MYA-3633 (strain M); experiment: MIC determination against filamentous fungi (CLSI M38-A2); type: cell-based; details: Aspergillus terreus, 48 h, MIC-0, 48 h at 35° C., read-out: MIC
Protocol: as §1, §2
(§4) Similarly, the MIC values of compounds 7a-24c, as well as that of the two control drugs against filamentous fungi (strains K-M) were determined as previously described in CLSI document M38-A2. Spores were harvested from sporulating cultures growing on potato dextrose agar (PDA) by filtration through sterile glass wool and enumerated by using a hemocytometer to obtain the desired inoculum size. […] Spore suspensions were added to the wells to afford a final concentration of 5×10^5 CFU/mL. The plates were incubated at 35° C. for 48 h. The MIC values of compounds 7a-24c and CAS against filamentous fungi were based on the complete inhibition of growth when compared to the growth control (MIC-0). […] Each test was performed in triplicate.

[12] = tested on: Aspergillus nidulans ATCC 38163 (strain L); experiment: as above; type: cell-based; details: Aspergillus nidulans, ATCC38163, 48 h, MIC-0, 48 h at 35° C., read-out: MIC
Protocol: as §1, §2, §4

[13] = tested on: Aspergillus flavus ATCC MYA-3631 (strain K); experiment: as above; type: cell-based; details: Aspergillus flavus, 48 h, MIC-0, 48 h at 35° C., read-out: MIC
Protocol: as §1, §2, §4

[14] = Nakaseomyces glabratus, ATCC2001, 48 h, read-out: MIC
[15] = Candida albicans, 48 h, read-out: MIC

| SMILES | MIC [1] [µg/mL] | MIC [1, 14] [µg/mL] | MIC [2] [µg/mL] | MIC [3] [µg/mL] | MIC [4, 15] [µg/mL] | MIC [4] [µg/mL] | MIC [5] [µg/mL] | MIC [6] [µg/mL] | MIC [7] [µg/mL] | MIC [8] [µg/mL] | MIC [9] [µg/mL] | MIC [10] [µg/mL] | MIC [11] [µg/mL] | MIC [12] [µg/mL] | MIC [13] [µg/mL] |
| --- | --- | --- | --- | --- | --- | --- | --- | --- | --- | --- | --- | --- | --- | --- | --- |
| Brc1ccc(N/N=C/c2ccc(-c3cccc(/C=N/Nc4ccc(Br)cc4)c3)cc2)cc1 [Compound 19a] | 7.8 (≈ 14.2 µM) | 7.8 (≈ 14.2 µM) | > 31.3 | 31.3 (≈ 57.1 µM) | 7.8 (≈ 14.2 µM) | 7.8 (≈ 14.2 µM) | > 31.3 | > 31.3 | 31.3 (≈ 57.1 µM) | 31.3 (≈ 57.1 µM) | 31.3 (≈ 57.1 µM) | > 31.3 | > 31.3 | > 31.3 | 31.3 (≈ 57.1 µM) |
| Fc1ccc(F)c(N/N=C/c2ccc(-c3cccc(/C=N/Nc4cc(F)ccc4F)c3)cc2)c1 [Compound 21a] |  | > 31.3 | > 31.3 | > 31.3 | > 31.3 |  | > 31.3 | > 31.3 | > 31.3 | > 31.3 | > 31.3 | > 31.3 | > 31.3 | > 31.3 | > 31.3 |
| Fc1ccc(F)c(N/N=C/c2ccc(-c3ccc(/C=N/Nc4cc(F)ccc4F)cc3)cc2)c1 [Compound 21b] |  | > 31.3 | > 31.3 | > 31.3 | > 31.3 |  | > 31.3 | > 31.3 | > 31.3 | > 31.3 | 31.3 (≈ 67.7 µM) | > 31.3 | > 31.3 | > 31.3 | > 31.3 |
| N=C(N)N/N=C/c1ccc(-c2ccc(/C=N/NC(=N)N)cc2)cc1 [Compound 24b] |  | > 31.3 | 15.6 (≈ 48.4 µM) | > 31.3 | > 31.3 |  | > 31.3 | > 31.3 | 15.6 (≈ 48.4 µM) | > 31.3 | 31.3 (≈ 97.1 µM) | 3.9 (≈ 12.1 µM) | > 31.3 | > 31.3 | > 31.3 |
| C/C(=N\NC(=N)N)c1ccc(-c2ccc(/C(C)=N/NC(=N)N)cc2)cc1 [Compound 24c] |  | 7.8 (≈ 22.3 µM) | 3.9 (≈ 11.1 µM) | 3.9 (≈ 11.1 µM) | 15.6 (≈ 44.5 µM) |  | 15.6 (≈ 44.5 µM) | 3.9 (≈ 11.1 µM) | 15.6 (≈ 44.5 µM) | 15.6 (≈ 44.5 µM) | 3.9 (≈ 11.1 µM) | 1.95 (≈ 5.56 µM) | > 31.3 | 15.6 (≈ 44.5 µM) | > 31.3 |
